# Several values for one entry are separate records, joined by “and”; a condition that tells them apart may be missing. Equal values may be shown once. Read-outs that look alike come from different tables or passages of the source.
# Experiments:
# [1] = system: HIV-1 replication in PBMCs; assay: HIV-1 replication in acutely infected PBMCs; assay type: cell-based, HIV-1 (IIIB); conditions: for EC50: Human immunodeficiency virus 1, PBMC, PBMCs; for suppression of acute HIV-1 replication in PBMCs (in words): fresh PBMCs
# Description: Suksdorf in was tested on peripheral blood mononuclear cells (PBMCS) which were stimulated for 3 days with PHA (1 .parallel.g/ml). The cells were collected and then infected with the 20X stock HIV-1 (IIIB). This is the same virus that is used in the drug screening assay. PBMCs were used for the following reasons: (1) It is another type of T cell infection. (2) PMBCs are freshly isolated cells not a cell line as are H9 cells. (3) We need to know if the effects of suksdorfin were limited to only an acute HIV-1 infection of a T cell line such as H9 cells. After the cells were infected with HIV-1, the cells were washed and then placed in medium with the cytokine, interleukin 2 (IL-2). IL-2 is needed to keep the cells activated which is necessary also for virus replication.
# As part of efforts to biologically characterize 16 the monocytic cell line, U937 and peripheral blood mononuclear cells (PBMCs) were separately infected with HIV-1 and then had various concentrations of the analog added for 4 days of culture.
# HIV Growth Inhibition Assay: The T cell line, H9, and the promonocytic cell line, U937, were maintained separately in continuous culture with complete medium (RPMI 1640 and […] fetal calf serum (FCS) at 5% CO2 and 37° C. Cell lines were used in experiments only when in log phase of growth; whereas, uninfected peripheral blood mononuclear cells (PBMCs) were first stimulated with PHA (1 μg/ml) for 3 days. All cell targets were incubated with HIV-1 (IIIB isolate, TCID50 10 ^4 IU/mi, at a multiplicity of infection of 0.1-0.01 IU/cell) for 1 hour at 37° C. and 5% CO2. The cell lines and PBMCs were washed thoroughly to remove unabsorbed virions and resuspended at 4×10^5 cells/ml in complete medium or complete medium with 10% v/v interleukin […] IL-2, respectively. Aliquots ( ml) were placed in wells of 24-well culture plates containing an equal volume of test compound (diluted in the appropriate culture medium). After incubation for 4 days at 37° C., cell density of uninfected cultures was determined by counting cells in a Coulter counter to assess toxicity of the test compound. A p24 antigen ELISA assay was used to determine the level of virus released in the medium of the HIV-infected cultures. The p24 antigen assay uses a HIV-1 anti-p24 specific monoclonal antibody as the capture antibody coated-on 96-well plates. Following a sample incubation period, rabbit serum containing antibodies for HIV-1 p24 is used to tag any p24 "captured" onto the microtiter well surface. Peroxidase conjugated goat anti-rabbit serum is then used to tag HIV-1 p24 specific rabbit antibodies which have complexed with captured p24. […] The cut-off for the p24 ELISA assay is 12. pg/ml. P24 in the culture medium was quantitated against a standard curve containing known amounts of p24. The effective (EC50) and inhibitory (IC50) concentrations (for anti-HIV activity and cytotoxicity, respectively) were determined graphically. Both the EC50 and IC50 values were calculated by plotting drug concentration versus percent inhibition, and then identifying a 50% inhibition value from the graph.
# [2] = system: uninfected H9 cells; assay: Combination study of suksdorfin with AZT, ddI and ddC: toxicity to uninfected H9 cells; assay type: cell-based; conditions: for IC50: Homo sapiens
# Description: Pharm. Asso. […] Aliquots ( ml) were placed in wells of 24-well culture plates containing an equal volume of test compound (diluted in the appropriate culture medium). After incubation for 4 days at 37° C., cell density of uninfected cultures was determined by counting cells in a Coulter counter to assess toxicity of the test compound. A p24 antigen ELISA assay was used to determine the level of virus released in the medium of the HIV-infected cultures. The p24 antigen assay uses a HIV-1 anti-p24 specific monoclonal antibody as the capture antibody coated-on 96-well plates. Following a sample incubation period, rabbit serum containing antibodies for HIV-1 p24 is used to tag any p24 "captured" onto the microtiter well surface. […] The cut-off for the p24 ELISA assay is 12. pg/ml. P24 in the culture medium was quantitated against a standard curve containing known amounts of p24. The effective (EC50) and inhibitory (IC50) concentrations (for anti-HIV activity and cytotoxicity, respectively) were determined graphically.
# Combination Study: The experimental design is identical to the growth inhibition assay except that various concentrations of AZT, ddI or ddC were also added to cultures of acutely HIV-1 infected H9 cells that either have or have no received different concentrations of suksdorfin.
# [3] = system: U937 cells; assay: Toxicity to uninfected U937 cells; assay type: cell-based; conditions: Homo sapiens, U-937; U937 cell line
# Description: Suksdorfin was also tested on an acute HIV-1 infection of the promonocytic cell line, U937. This was done again to determine drug specificity but this time on a monocytic cell line.
# HIV Growth Inhibition Assay: The T cell line, H9, and the promonocytic cell line, U937, were maintained separately in continuous culture with complete medium (RPMI 1640 and […] fetal calf serum (FCS) at 5% CO2 and 37° C. Cell lines were used in experiments only when in log phase of growth; whereas, uninfected peripheral blood mononuclear cells (PBMCs) were first stimulated with PHA (1 μg/ml) for 3 days. All cell targets were incubated with HIV-1 (IIIB isolate, TCID50 10 ^4 IU/mi, at a multiplicity of infection of 0.1-0.01 IU/cell) for 1 hour at 37° C. and 5% CO2. The cell lines and PBMCs were washed thoroughly to remove unabsorbed virions and resuspended at 4×10^5 cells/ml in complete medium or complete medium with 10% v/v interleukin (Pettinato, et al. J. Amer. Pharm. Asso. […] After incubation for 4 days at 37° C., cell density of uninfected cultures was determined by counting cells in a Coulter counter to assess toxicity of the test compound. […] P24 in the culture medium was quantitated against a standard curve containing known amounts of p24. The effective (EC50) and inhibitory (IC50) concentrations (for anti-HIV activity and cytotoxicity, respectively) were determined graphically. […]
# [4] = system: HIV-1 replication in fresh elutriated monocytes; assay: HIV-1 infection of primary elutriated monocytes (p24 antigen); assay type: cell-based
# Text: In order to determine if compound 16 suppressive activity was limited to only fresh T cells infected with HIV-1, elutriated monocytes were infected with HIV-1 and then cultured with various concentrations of compound 16 or AZT. […] This illustrates that the effect of the drμg is not only limited to T cells but also can effect virally infected monocytes.
# [5] = system: HIV-2 replication in HUT-78 cells; assay: Suppression of virus replication during HIV-2 infection of HUT-78 cells (reverse transcriptase assay); assay type: cell-based
# Text: During this experiment, HIV-2 was used. The basic assay system is identical to that used for HIV-1 except that a different virus stock was used and rather than a p24 antigen ELISA determination a reverse transcriptase assay was used to detect the presence of the virus.
smiles,measurement,setting,value
"CC(=O)O[C@@H]1[C@H](OC(=O)CC(C)C)c2c(ccc3ccc(=O)oc23)OC1(C)C [Suksdorfin, suksdorfin]",EC50,[1],3.9 µM
same,EC50,[1]; Table 6,1.5 µg/mL
same,suppression of acute HIV-1 replication in PBMCs (in words),[1],can suppress an acute HIV-1 replication
same,toxicity to H9 cells,[2]; 20 μg/ml,toxic to H9 cells
same,IC50,[3],> 20 µg/mL
"CC1(C)Oc2ccc3ccc(=O)oc3c2[C@@H](OC(=O)[C@@]23CC[C@@](C)(C(=O)O2)C3(C)C)[C@H]1OC(=O)[C@@]12CC[C@@](C)(C(=O)O1)C2(C)C [Compound 16, 3',4'-Di-O-(-)-Camphanoyl-(+)-cis-Khellactone]",suppression of HIV-1 replication in fresh elutriated monocytes (in words),[4],able to suppress HIV-1 replication in fresh elutriated monocytes
same,p24 antigen,"[4]; Day 17, 0.0000102 μg/ml",49 pg/mL
same,p24 antigen,"[4]; Day 17, 0.0000512 μg/ml",52 pg/mL
same,p24 antigen,"[4]; Day 17, 0.000256 μg/ml",70 pg/mL
same,p24 antigen,"[4]; Day 17, 0.00128 μg/ml",306 pg/mL
same,p24 antigen,"[4]; Day 17, 0.0064 μg/ml",66 pg/mL
same,p24 antigen,"[4]; Day 17, 0.032 μg/ml",94 pg/mL
same,p24 antigen,"[4]; Day 17, 0.16 μg/ml",7 pg/mL
same,p24 antigen,"[4]; Day 17, 0.8 μg/ml",6 pg/mL
same,p24 antigen,"[4]; Day 17, 4 μg/ml",6 pg/mL
same,p24 antigen,"[4]; Day 17, 20 μg/ml",5 pg/mL
same,p24 antigen,"[4]; Day 28, 0.0000102 μg/ml",1536 pg/mL
same,p24 antigen,"[4]; Day 28, 0.0000512 μg/ml",824 pg/mL
same,p24 antigen,"[4]; Day 28, 0.000256 μg/ml",760 pg/mL
same,p24 antigen,"[4]; Day 28, 0.00128 μg/ml",208 pg/mL
same,p24 antigen,"[4]; Day 28, 0.0064 μg/ml",584 pg/mL
same,p24 antigen,"[4]; Day 28, 0.032 μg/ml",0 pg/mL
same,p24 antigen,"[4]; Day 28, 0.16 μg/ml",0 pg/mL
same,p24 antigen,"[4]; Day 28, 0.8 μg/ml",0 pg/mL
same,p24 antigen,"[4]; Day 28, 4 μg/ml",0 pg/mL
same,p24 antigen,"[4]; Day 28, 20 μg/ml",0 pg/mL
same,EC50,[1],0.018 µg/mL and 29 nM
same,suppression of acute HIV-1 replication in PBMCs (in words),[1],suppression detected
same,effect on HIV-2 replication (in words),[5],no effect on the virus replication of HIV-2
"Cc1cn([C@H]2C[C@H](N=[N+]=[N-])[C@@H](CO)O2)c(=O)[nH]c1=O [AZT, azidothymidine, reference compound]",p24 antigen,"[4]; Day 17, 0.0001 μg/ml",83 pg/mL
same,p24 antigen,"[4]; Day 17, 0.001 μg/ml",100 pg/mL
same,p24 antigen,"[4]; Day 17, 0.01 μg/ml",7 pg/mL
same,p24 antigen,"[4]; Day 17, 0.1 μg/ml",5 pg/mL
same,p24 antigen,"[4]; Day 17, 1 μg/ml",2 pg/mL
same,p24 antigen,"[4]; Day 17, 10 μg/ml",0.1 pg/mL
same,p24 antigen,"[4]; Day 28, 0.0001 μg/ml",0 pg/mL
same,p24 antigen,"[4]; Day 28, 0.001 μg/ml",0 pg/mL
same,p24 antigen,"[4]; Day 28, 0.01 μg/ml",0 pg/mL
same,p24 antigen,"[4]; Day 28, 0.1 μg/ml",0 pg/mL
same,p24 antigen,"[4]; Day 28, 1 μg/ml",0 pg/mL
same,p24 antigen,"[4]; Day 28, 10 μg/ml",0 pg/mL
same,IC50,[2]; H9,> 1 µg/mL
same,IC50,"[2]; H9, read-out: IC50 (μM)^a",> 1 µg/mL
